{"source": "patent EP4076431B1", "about": "“COMPOSITION AND METHOD FOR THE PREVENTION AND TREATMENT OF TYPE 2 DIABETES” (Vector Vitale IP LLC, priority 2019, dated 2021)", "key": {"[1]": {"test": "Accumulation of metals in liver and kidney tissues, intact rats", "format": "in vivo", "settings": "day 1 and day 7 after discontinuation; intraperitoneal", "experimental": "The total kidney, liver and muscle homogenates were prepared as follows. Organ excision and homogenization were carried out at a temperature of 1-4°C. Homogenization of tissues was carried out in 50 mM Tris-HCl buffer (pH 7.4) which contained 140 mM NaCl, 1 mM EDTA. The volume of the used buffer in ml was 5 times larger than the mass of isolated organs in grams. The isolated liver was perfused with chilled saline (0.9% NaCl) via the portal vein using a syringe. The minced liver was transferred to a homogenizer with a finely ground Teflon pestle and homogenized in chilled buffer. An isolated pair of kidneys was perfused with chilled saline, released from adipose tissue and minced with scissors. The minced tissue was transferred to a homogenizer with a finely ground Teflon pestle and homogenized in chilled buffer. The total kidney and liver homogenates were centrifuged at 600 g for 15 minutes. The liquid was decanted after the mince settled down and was centrifuged again at 15,000 g for 15 minutes. These two procedures allowed us to get rid of nuclear and mitochondrial debris. Aliquots of the prepared homogenates were frozen in nitrogen (Rybalchenko V.K., Koganov M.M. Structure and function of membrane 1988. - 312 pp)."}, "Glucose tolerance test": {"test": "Glucose tolerance test", "settings": "dose 5 mg/kg in a volume of 2 ml, individual animals 1-5", "quoted_text": "Animals that had access only to water 16 hours before the start of the experiment were used in the glucose tolerance test. Rats were anesthetized with intraperitoneal injection of sodium thiopental at a dose of 40 mg/kg. 5 animals were used within the same experimental group. Basal levels of glycaemia were determined in rats, after which the animals were fed 2 ml of aqueous glucose solution at a dose of 3 g/kg. The concentration of glucose was determined 60 minutes after the start of the experiment.\nA glucose tolerance test was performed to determine a potential effect of zinc isotope on the dynamics of glucose concentration in the blood flow. Experimental procedure: laboratory animals are given intragastric injections of either normal saline solution or zinc in saline solution (5 mg/kg) in a volume of 2 ml. After that, 60 minutes after the aforementioned injections, the basal level of glucose is measured and a glucose solution is injected in an amount of 3 g/kg in a volume of 2 ml using the same route of administration. The blood glucose levels are measured again 60 minutes after injecting the glucose solution."}, "IL-4": {"tested_on": "IL-4", "test": "Cytokine profile, immunoenzyme method, obesity model: IL-4", "settings": "Table 7, serum", "quoted_text": "(§1) Adipose tissue was crushed using cold scissors then transferred to a homogenizer with a loose-fitting Teflon pestle. The tissue was homogenized using approximately 30 strokes of the pestle in cold homogenization buffer (50 mM Tris-HCl (pH 7.4) containing 130 mM NaCl). Primary homogenate thus obtained was centrifuged at 600 g for 15 minutes. The supernatant was carefully collected and re-centrifuged at 15,000 g for 15 minutes. The supernatant was then frozen and stored at -80°C until the experiments.\n(§2) The levels of insulin, interleukins and adipokines were determined using immunoenzyme method (Halenova TI et al. RSC Adv. 2016;6: 100046-55), which was carried out in microplates with a sorption capacity in accordance with the soluble protein test procedure. The antigen solution, previously diluted with 0.1 M NaHCOs buffer, pH 9.6, to a concentration of 10 µg/ml, was incubated in the plate wells for 12 hours at 4°C. Unbound material was removed by washing the wells three times with TBS buffer, first with 0.05% Tween-20, then without Tween-20. Non-specific binding sites were blocked by adding a solution of 5% skim milk or a solution of 1% bovine serum albumin to the plate wells and incubating them for 60 minutes at 37°C. […]\n(§3) The absorbance at a wavelength of 492 nm was measured using a µQuant microplate spectrophotometer (BioTek Instruments)."}, "IL-1": {"tested_on": "IL-1", "test": "Cytokine profile, immunoenzyme method, obesity model: IL-1", "settings": "Table 7, serum", "quoted_text": "as §1, §2, §3"}, "TGF": {"tested_on": "TGF", "test": "Cytokine profile, immunoenzyme method, obesity model: TGF", "settings": "Table 7, serum", "quoted_text": "as §1, §2, §3"}, "[2]": {"test": "Anthropometric values and food consumption, high-fat diet induced obesity model", "settings": "Table 3", "text": "Before the start of the experiment, animals were maintained on a standard diet of the vivarium. To induce obesity in experimental animals, they were fed high-fat diet which consisted of standard feed (60%), lard (10%), chicken eggs (10%), sucrose (9%), peanuts (5%), dry milk (5%) and sunflower oil (1%) (1%) (see X. H. Shen et al., Exp. Biol. and Med. 235: 47-51 (2010)).\nAnimals in all groups were weighed once a week after an overnight fast. The amount of feed to be consumed by the animals was determined daily. At the end of a 10-week period of the development of obesity models, 24 hours after the last administration of the zinc isotope solution, animals were removed from their cages and decapitated.\nThe body mass index (BMI) (the ratio of body weight (g) to the square of body length (cm^2)) was calculated at the end of the experiment.\nAnimals with an initial weight of 195-205±10 g maintained on the standard diet of the vivarium before performing obesity models were used in the experiments. To induce obesity in experimental animals, they were fed high-fat diet which consisted of standard feed (60%), lard (10%), chicken eggs (10%), sucrose (9%), peanuts (5%), dry milk (5%) and sunflower oil (1%), Shen X. et al., Experimental Biology and Medicine. - 2010. - Nº 235. - P. 47-51.\nAnimals in all groups were weighed once a week after an overnight fast. The amount of feed to be consumed by the animals was determined daily.\nThe body mass index (BMI) (the ratio of body weight (g) to the square of body length (cm2)) was calculated at the end of the experiment."}, "glycated hemoglobin": {"tested_on": "glycated hemoglobin", "test": "Glycated hemoglobin, streptozotocin-induced type I diabetes model", "settings": "Table 22; streptozotocin diabetic rats; 800 µg of zinc per animal orally, 7 doses; n = 10", "quoted_text": "The levels of glycated hemoglobin in whole blood of rats was measured spectrophotometrically in accordance with the established procedure. The assay was performed using a standard assay kit manufactured by Lachema (Czech Republic).\nThe method for glycated hemoglobin measurement is based on the fact that the stable form of glycohemoglobin (HbA1c) contains 1-deoxy-1-(N-valyl) fructose, which is dehydrated with phosphoric acid to form a colored complex with an absorption spectrum at 433 nm. Neither the labile form of glycohemoglobin nor fetal hemoglobin interferes with the determination of glycated hemoglobin.\nTotal hemoglobin was measured spectrophotometrically. […] The absorbance was read at a wavelength of 540 nm against the transforming solution. The total hemoglobin fraction was calculated according to the manufacturer's recommendations using the following formula: Hb = (A∗367,7)/(4,92) [formula] where Hb is total hemoglobin, A is optical density of the test sample. […]\nHemolysate was prepared by adding an anticoagulant, 3.8% solution of Na citrate diluted at 1:10, to freshly collected blood. […] The optical density of the samples was measured on a spectrophotometer at a wavelength of 443 nm against distilled water. […]\nConcentration of glycohemoglobin was expressed as µmols of fructose per g of hemoglobin (Glycated hemoglobin / Assay kit // Pliva-lachema diagnostica. - 2008. - 10003258.)."}, "IFN-γ": {"tested_on": "IFN-γ", "test": "Cytokine profile, immunoenzyme method, obesity model: IFN-γ", "settings": "Table 7, serum", "quoted_text": "as §1, §2, §3"}, "collagen fibers": {"tested_on": "collagen fibers", "test": "Morphometric analysis of liver fibrosis, Van Gieson staining, obesity model", "settings": "rats eating a standard diet, treated", "quoted_text": "To carry out a histochemical reaction to determine the level of liver fibrosis, Van Gieson's picro-fuchsin method of staining was used. To do this, the sections were first soaked with water and then re-stained with Bömer's hematoxylin for 3-4 minutes. The sections were then rinsed in distilled water and stained with Van Gierson's picro-fuchsin for 3 minutes. Once stained, the sections were rinsed in distilled water, dehydrated in 96% alcohol, cleared in dioxane and xylene, and enclosed in a balsam under a coverslip. […] All parameters were measured using ImageJ software."}, "[3]": {"test": "Blood glucose, streptozotocin-induced type I diabetes model, oral administration", "settings": "Table 22; streptozotocin diabetic rats; 800 µg of zinc per animal orally, 7 doses every other day; n = 10", "quoted_text": "Number of animals: 10 (males). Animals were housed in cages, 4 per cage, and provided ad libitum access to food and water. To induce diabetes in animals, each animal was given a single injection of streptozotocin solution at a dose of 6 mg per 100 g of animal weight dissolved in 10 mM citrate buffer (pH 4.5) intraperitoneally. The fasted animals were tested for sufficient levels of glycemia two days after induction of diabetes. Rats with blood glucose concentrations within the range >20 mmol/l were used in the experiments.\n24 hours later, 7 doses of the test substance were administered to the animals orally. Frequency of administration - every other day.\nDose of administration - 800 µg of zinc per animal.\nThe glucose concentration in whole blood was measured by the glucose oxidase method using a GlucoDr Auto AGM-4000 blood glucose meter (Allmedicus Co., Ltd., Korea). All procedures were performed according to the manufacturer's instructions\nType I experimental diabetes was induced by a single intraperitoneal injection of streptozotocin solution at a dose of 6 mg per 100 g of animal weight dissolved in 10 mM citrate buffer (pH 4.5). The rats of the control group were administered 10 mM citrate buffer (pH 4.5) by the aforementioned method. The whole blood glucose concentrations were measured two days after induction of diabetes in rats."}, "IL-6": {"tested_on": "IL-6", "test": "Cytokine profile, immunoenzyme method, obesity model: IL-6", "settings": "Table 7, serum", "quoted_text": "as §1, §2, §3"}, "[4]": {"settings": "C+zinc: control rats, standard diet"}, "[5]": {"settings": "DIO+zinc: diet-induced obesity rats"}}, "note": "Several values for one entry are separate records, joined by “and”; a condition that tells them apart may be missing. Identical values can stand only once."}
{"molecule": "CC(=O)[O-].CC(=O)[O-].[Zn+2]", "note": "[Zn acetate, Zn acetate (Zn(CH3COO)2), reference compound]", "values": [{"measurement": "accumulation of other metals (manganese, copper) in kidney and liver tissues", "setting": "[1]", "result": "within the same concentrations as in the control group of animals"}, {"measurement": "accumulation of zinc in kidney and liver tissues", "setting": "[1]", "result": "significantly increased"}, {"measurement": "60 min (1 h after glucose administration)", "setting": "Glucose tolerance test; Table 2, blood glucose after glucose 3 g/kg", "result": "7,2 (2×) and 6,9 and 7,3 and 6,8"}, {"measurement": "0 min (1 h after effector administration)", "setting": "Glucose tolerance test; Table 2, blood glucose before glucose load, fast overnight", "result": "4,6 and 5,2 (2×) and 4,9 and 5,1"}]}
{"molecule": "Zinc asparaginate [^64Zne]", "values": [{"measurement": "Levels, Anti-inflammatory cytokines, IL-4", "setting": "IL-4; C+^64Zne", "result": "4.6±0.8", "unit": "RU/mg protein"}, {"measurement": "Levels, Anti-inflammatory cytokines, IL-4", "setting": "IL-4; DIO+^64Zne", "result": "5.6±1.6", "unit": "RU/mg protein"}, {"measurement": "Levels, Pro-inflammatory cytokines, IL-1", "setting": "IL-1; C+^64Zne: control rats", "result": "3.5±0.7", "unit": "RU/mg protein"}, {"measurement": "Levels, Pro-inflammatory cytokines, IL-1", "setting": "IL-1; DIO+^64Zne: diet-induced obesity rats", "result": "4.2±0.4", "unit": "RU/mg protein"}, {"measurement": "Levels, Anti-inflammatory cytokines, TGF", "setting": "TGF; C+^64Zne", "result": "4.1±0.4", "unit": "RU/mg protein"}, {"measurement": "Levels, Anti-inflammatory cytokines, TGF", "setting": "TGF; DIO+^64Zne", "result": "5.7±0.3 # RU/mg protein"}, {"measurement": "accumulation of other metals (manganese, copper) in kidney and liver tissues", "setting": "[1]", "result": "within the same concentrations as in the control group of animals"}, {"measurement": "accumulation of zinc in kidney and liver tissues", "setting": "[1]", "result": "significantly increased"}, {"measurement": "Amount of food consumed", "setting": "[2]; [4]", "result": 32, "unit": "g/day"}, {"measurement": "Calorie content of food", "setting": "[2]; [4]", "result": 490, "unit": "kJ/day"}, {"measurement": "Weight gain as of the end of the experiment", "setting": "[2]; [4]", "result": 59, "unit": "%"}, {"measurement": "BMI", "setting": "[2]; C+zinc: control rats, standard diet, ^64Zne administration", "result": 0.59, "unit": "g/cm^2"}, {"measurement": "Amount of food consumed", "setting": "[2]; [5]", "result": 29, "unit": "g/day"}, {"measurement": "Calorie content of food", "setting": "[2]; [5]", "result": 823, "unit": "kJ/day"}, {"measurement": "Weight gain as of the end of the experiment", "setting": "[2]; [5]", "result": 62, "unit": "%"}, {"measurement": "BMI", "setting": "[2]; DIO+zinc: diet-induced obesity rats, ^64Zne 2.25 mg/ml, 2 ml intragastrically every third day, 10th week", "result": 0.65, "unit": "g/cm^2"}, {"measurement": "Glycated hemoglobin", "setting": "glycated hemoglobin", "result": "0,51 ± 0,05 µmol fructose/g Hb"}, {"measurement": "Levels, Pro-inflammatory cytokines, IFN-γ", "setting": "IFN-γ; C+^64Zne", "result": "4.6±0.6", "unit": "RU/mg protein"}, {"measurement": "Levels, Pro-inflammatory cytokines, IFN-γ", "setting": "IFN-γ; DIO+^64Zne", "result": "4.1±1.2", "unit": "RU/mg protein"}, {"measurement": "increase in the area of deposition of collagen fibers", "setting": "collagen fibers", "result": 2, "unit": "fold"}, {"measurement": "Glucose", "setting": "[3]", "result": "20 ± 3", "unit": "mM"}, {"measurement": "Levels, Pro-inflammatory cytokines, IL-6", "setting": "IL-6; C+^64Zne", "result": "4.3±0.2", "unit": "RU/mg protein"}, {"measurement": "Levels, Pro-inflammatory cytokines, IL-6", "setting": "IL-6; DIO+^64Zne", "result": "5.1±0.4", "unit": "RU/mg protein"}]}
